Measurements: PMC5740061 (Nature Communications, 2017)
“Also recorded” adds a separate entry of the source. Where two headings read alike, the source gives them in different places. Bridge positions count the residues as written; N and C are the ends. Ends that are not written are not given here.

Assays:
[1] = target: T1, YAP:TEAD (Homo sapiens, UniProt P28347); type: biochemical; design: plasmid # 66853; host or cells: 293T cells, RIPA lysates
Target sequence in this assay (P28347 whole entry): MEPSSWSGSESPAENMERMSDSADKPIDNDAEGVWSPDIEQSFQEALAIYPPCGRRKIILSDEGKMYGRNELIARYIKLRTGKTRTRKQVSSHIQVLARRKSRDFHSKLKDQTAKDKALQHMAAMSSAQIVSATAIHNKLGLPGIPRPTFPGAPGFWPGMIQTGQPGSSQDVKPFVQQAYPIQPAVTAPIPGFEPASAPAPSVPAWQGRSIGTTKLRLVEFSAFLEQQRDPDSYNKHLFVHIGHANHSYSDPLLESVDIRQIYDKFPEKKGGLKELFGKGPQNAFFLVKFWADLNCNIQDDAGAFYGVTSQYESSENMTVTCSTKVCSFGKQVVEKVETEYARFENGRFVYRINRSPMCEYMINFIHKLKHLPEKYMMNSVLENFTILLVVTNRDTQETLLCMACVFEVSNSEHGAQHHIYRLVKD

[2] = Reduction resistance of soluble optides (DTT or glutathione, RP-HPLC, LC/MS); type: physicochemical; settings: for reduction with 10 mM DTT: soluble optide, SDS-PAGE, mass spectrometry
[3] = target: T1, YAP:TEAD; type: binding; design: GST; made in house; host or cells: TEAD from Hi5 insect cells; settings: 293F cells expressing SDGF-YAP, 5 nM TEAD, 0-100 nM optide
Target sequence in this assay (P28347 209-426): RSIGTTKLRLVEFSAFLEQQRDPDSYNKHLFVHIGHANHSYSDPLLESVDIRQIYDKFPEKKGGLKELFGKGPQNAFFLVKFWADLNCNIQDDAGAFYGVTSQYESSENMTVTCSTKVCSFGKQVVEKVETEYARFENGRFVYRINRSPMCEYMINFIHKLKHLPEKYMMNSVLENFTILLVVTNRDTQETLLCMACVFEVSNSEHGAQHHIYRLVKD

[4] = target: T2, TEAD (Homo sapiens, UniProt P28347); assay: Surface display TEAD binding by flow cytometry (SDGF, 293F cells); settings: tetravalent staining, SDGF-TB1G1 cells
T2 construct: GST; made in house; host or cells: Hi5 insect cells (baculovirus, pIEX-BAC3 vector)
T2 sequence (P28347 209-426): as above

[5] = type: physicochemical; settings: SYPRO Orange, 0.1 mg/mL in PBS, 20 to 95 °C
[6] = Circular dichroism thermostability; type: physicochemical; settings: 25-30 µM in 10 mM phosphate buffer pH 7.4, heated 20 to 95 °C at 2 °C per min, 220 nm
Description: Protein secondary structures were assessed using circular dichrosim (CD). CD spectra were measured with a Jasco J-720W spectropolarimeter using a 1.0 mm path length cell. Protein samples (25-30 µM) in 10 mM phosphate buffer (pH 7.4) were analyzed at a wavelength range of 190 to 260 nm. […] Data are expressed in terms of relative ellipticity [θ], reported in mdeg.

[7] = test system: HeLa cells; assay: Cell penetration of DyLight 488 labelled optide in HeLa cells; type: cell-based; settings: 5 µM optide without dfTAT
[8] = target: T3, chymotrypsin (Bos taurus, UniProt P00766); assay: Protease stability in surface display (SDPR), chymotrypsin; type: in vitro ADME; settings: 40 µg mL^-1 chymotrypsin, SDPR-TB1G2 on 293F cells, then 5 mM DTT and iFluor 647 anti-6xHis staining
T3 construct: purchased Promega V1062

[9] = target: T4, trypsin (Sus scrofa, UniProt P00761); assay: Protease stability in surface display (SDPR), trypsin; type: in vitro ADME; design: purchased Promega V5111; settings: 40 µg mL^-1 trypsin, SDPR-TB1G2 on 293F cells, then 5 mM DTT and iFluor 647 anti-6xHis staining
T4 sequence (P00761 9-231): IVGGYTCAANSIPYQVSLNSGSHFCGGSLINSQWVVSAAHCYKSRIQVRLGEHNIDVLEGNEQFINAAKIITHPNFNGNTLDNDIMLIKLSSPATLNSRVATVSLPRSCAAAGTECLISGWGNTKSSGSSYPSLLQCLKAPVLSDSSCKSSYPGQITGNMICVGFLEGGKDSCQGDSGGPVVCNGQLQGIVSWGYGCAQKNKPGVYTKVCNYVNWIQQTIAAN

[10] = target: T2, TEAD; assay: Reduction resistance of surface displayed optides (GSH or DTT, then TEAD binding); type: physicochemical; settings: 10 mM glutathione for 5 mins, then TEAD binding (20 nM, 2-step stain)
[11] = target: T1, YAP:TEAD; type: cell-based; design: endogenous in cells; host or cells: HeLa cells; settings: HeLa cells, 5 µM optide with 5 µM dfTAT, 90 min; versus dfTAT alone, P < 0.0001
Target sequence in this assay (P28347 whole entry): as the sequence (P28347 whole entry) above

[12] = target: T4, trypsin

Compound: CC[C@H](C)[C@@H]1NC(=O)[C@H](CC(=O)O)NC(=O)CNC(=O)[C@H](CCCCN)NC(=O)[C@H](CCCCN)NC(=O)[C@@H]2CSSC[C@@H](C(=O)N3CCC[C@H]3C(=O)O)NC(=O)[C@H](Cc3ccccc3)NC(=O)[C@H](CC(C)C)NC(=O)[C@@H]3CSSC[C@H](NC(=O)[C@H](CSSC[C@H](NC(=O)[C@H](CCC(=O)O)NC(=O)[C@H](CCCCN)NC(=O)[C@H](C)NC(=O)[C@H](CCCNC(=N)N)NC(=O)[C@H](CCC(=O)O)NC(=O)[C@@H](NC(=O)[C@H](Cc4ccc(O)cc4)NC(=O)[C@H](CCC(=O)O)NC(=O)[C@H](CC(=O)O)NC(=O)[C@@H]4CCCN4C(=O)[C@H](CO)NC(=O)CN)[C@@H](C)CC)C(=O)N2)NC(=O)[C@H](CCC(N)=O)NC1=O)C(=O)N[C@@H](CC(C)C)C(=O)N[C@@H](CCCNC(=N)N)C(=O)N[C@@H](Cc1ccc(O)cc1)C(=O)N[C@@H](Cc1ccccc1)C(=O)N[C@@H](CCC(=O)O)C(=O)N[C@@H](CCC(=O)O)C(=O)N[C@@H](CO)C(=O)NCC(=O)N[C@@H](CC(=O)O)C(=O)N1CCC[C@H]1C(=O)N[C@@H](CC(N)=O)C(=O)N[C@@H](C(C)C)C(=O)N[C@@H](CCSC)C(=O)N[C@@H](CC(C)C)C(=O)N[C@@H]([C@@H](C)CC)C(=O)N3 [TB1G1]
- inhibition of FLAG-YAP co-immunoprecipitation with Myc-TEAD ([1]; 293T cell lysate, 30 min at 4 °C): dose-dependent inhibition
- reduction with 10 mM DTT [2]: complete
- inhibition of YAP:TEAD-dependent cell staining [3]: inhibited YAP:TEAD-dependent cell staining
- TEAD concentration at which binding was still detectible [4]: 64 pM
- TEAD concentration of peak signal:noise [4]: 8 nM

Compound: CC[C@H](C)[C@H](NC(=O)[C@H](Cc1ccc(O)cc1)NC(=O)[C@H](CCC(=O)O)NC(=O)[C@H](CC(=O)O)NC(=O)[C@@H]1CCCN1C(=O)[C@H](CO)NC(=O)CN)C(=O)N[C@@H](CCC(=O)O)C(=O)N[C@@H](CCCNC(=N)N)C(=O)N[C@@H](C)C(=O)N[C@@H](CCCCN)C(=O)N[C@@H](CCC(=O)O)C(=O)N[C@H]1CSSC[C@@H]2NC(=O)[C@H](CCC(N)=O)NC(=O)[C@H]([C@@H](C)CC)NC(=O)[C@H](CC(=O)O)NC(=O)[C@H](CCC(N)=O)NC(=O)[C@H](CCCCN)NC(=O)[C@H](CCCCN)NC(=O)[C@H](CSSC[C@@H](C(=O)N3CCC[C@H]3C(=O)O)NC(=O)[C@H](Cc3ccccc3)NC(=O)[C@H](CC(C)C)NC(=O)[C@@H]3CSSC[C@H](NC2=O)C(=O)N[C@@H](CC(C)C)C(=O)N[C@@H](CCCNC(=N)N)C(=O)N[C@@H]([C@@H](C)CC)C(=O)N[C@@H](Cc2ccccc2)C(=O)N[C@@H](CC(=O)O)C(=O)N[C@@H](CCC(=O)O)C(=O)N[C@@H](CO)C(=O)N[C@@H](CCCCN)C(=O)N[C@@H](CC(=O)O)C(=O)N2CCC[C@H]2C(=O)N[C@@H](CC(N)=O)C(=O)N[C@@H](C(C)C)C(=O)N[C@@H](CCSC)C(=O)N[C@@H](CC(C)C)C(=O)N[C@@H]([C@@H](C)CC)C(=O)N3)NC1=O [TB1G2-W40P]
- melting temperature [5]: no melting temperature could be determined
- thermostability by circular dichroism [6]: identical before (Pre) and after (Post) incubation at 95 °C

Compound: CC[C@H](C)[C@H](NC(=O)[C@H](Cc1ccc(O)cc1)NC(=O)[C@H](CCC(=O)O)NC(=O)[C@H](CC(=O)O)NC(=O)[C@@H]1CCCN1C(=O)[C@H](CO)NC(=O)CN)C(=O)N[C@@H](CCC(=O)O)C(=O)N[C@@H](CCCNC(=N)N)C(=O)N[C@@H](C)C(=O)N[C@@H](CCCCN)C(=O)N[C@@H](CCC(=O)O)C(=O)N[C@H]1CSSC[C@@H]2NC(=O)[C@H](CCC(N)=O)NC(=O)[C@H]([C@@H](C)CC)NC(=O)[C@H](CC(=O)O)NC(=O)[C@H](CCC(N)=O)NC(=O)[C@H](CCCCN)NC(=O)[C@H](CCCCN)NC(=O)[C@H](CSSC[C@@H](C(=O)N[C@@H](Cc3c[nH]c4ccccc34)C(=O)O)NC(=O)[C@H](Cc3ccccc3)NC(=O)[C@H](CC(C)C)NC(=O)[C@@H]3CSSC[C@H](NC2=O)C(=O)N[C@@H](CC(C)C)C(=O)N[C@@H](CCCNC(=N)N)C(=O)N[C@@H]([C@@H](C)CC)C(=O)N[C@@H](Cc2ccccc2)C(=O)N[C@@H](CC(=O)O)C(=O)N[C@@H](CCC(=O)O)C(=O)N[C@@H](CO)C(=O)N[C@@H](CCCCN)C(=O)N[C@@H](CC(=O)O)C(=O)N2CCC[C@H]2C(=O)N[C@@H](CC(N)=O)C(=O)N[C@@H](C(C)C)C(=O)N[C@@H](CCSC)C(=O)N[C@@H](CC(C)C)C(=O)N[C@@H]([C@@H](C)CC)C(=O)N3)NC1=O [TB1G2]
- cell penetration [7]: failed to demonstrate cell penetration; also recorded: not yet cell penetrant
- stability under intracellular reducing conditions, soluble ([2]; 10 mM glutathione): no effect on TB1G2 stability
- reduction with 10 mM DTT [2]: incomplete reduction
- protease stability in surface display, chymotrypsin [8]: no change in anti-6xHis staining
- inhibition of YAP:TEAD-dependent cell staining [3]: much higher potency
- protease stability in surface display, trypsin [9]: no change in anti-6xHis staining
- stability under intracellular reducing conditions, surface displayed [10]: no effect on TB1G2 stability
- melting temperature [5]: no melting temperature could be determined
- thermostability by circular dichroism [6]: no evidence of altered TB1G2 structure up to 95 °C; also recorded: identical before (Pre) and after (Post) incubation at 95 °C
- YAP:TEAD PLA speckles per nucleus [11]: reduction in speckles

Compound: Beta/delta-agatoxin-6 [Peptide 3]
- Trypsin Resistance [12]: 102%

Compound: GSAPPCKRDVDCSFECPKGGFCNDRLGTCDCF (also: bicyclic or more (positions not given here)) [Peptide 1, Putative defensin-like protein 257]
- Trypsin Resistance [12]: 90%

Compound: GSDLVCYCRKRGCKRREHMNGTCRRGHLMYTLCCR (also: bicyclic or more (positions not given here)) [Peptide 10, Alpha-defensin 13]
- Trypsin Resistance [12]: 43%

Compound: GSGICACRRRFCLNFEQFSGYCRVNGARYVRCCSRR (also: bicyclic or more (positions not given here)) [Peptide 9, Corticostatin-6]
- Trypsin Resistance [12]: 65%

Compound: GSKDYCPGICNVAAVPDCDTLCISLGYSGGYCRAGRICCCNPK (also: bicyclic or more (positions not given here)) [Peptide 7, Uncharacterized protein]
- Trypsin Resistance [12]: 96%

Compound: GSKEICERPNGSCRDFCLETEIHVGRCLNSQPCCLPL (also: bicyclic or more (positions not given here)) [Peptide 4, Beta-defensin 108B]
- Trypsin Resistance [12]: 95%

Compound: GSPMTCEQAMASCEHTMCGYCQGPLYMTCIGITTDPECGLP (also: bicyclic or more (positions not given here)) [Peptide 6, Mating pheromone Er-2/Er-9]
- Trypsin Resistance [12]: 97%

Compound: GSRGQCWSYSNCRAVCRDEGYVSGHCNYFGGACWCAS (also: bicyclic or more (positions not given here)) [Peptide 13, Putative uncharacterized protein]
- Trypsin Resistance [12]: 52%

Compound: GSSVPCVSTRGSCKPPAPACCHPCASCQCRFFRSACSCRVLNVNC (also: bicyclic or more (positions not given here)) [Peptide 12, Agouti-signaling protein]
- Trypsin Resistance [12]: 60%

Compound: GSVDGCQETCTKMIRCQFFTYSLFPEDCRGEKCKCSLR (also: bicyclic or more (positions not given here)) [Peptide 16, Plasma kallikrein]
- Trypsin Resistance [12]: 50%

Compound: GSYTDCTESGQNLCLCEGSNVCGKGNKCILGSQGKDNQCVTG (also: bicyclic or more (positions not given here)) [Peptide 5, Hirudin-PA]
- Trypsin Resistance [12]: 75%

Compound: H-GSPDEYIERAKECCKKGDIQCCLRYFEESGDPNVMLICLACP-OH (disulfide 13-21, 14-41, 22-38) [TB1G1-F38A]
- inhibition of FLAG-YAP co-immunoprecipitation with Myc-TEAD [1]: not

Compound: Turripeptide IX-01 [Peptide 8]
- Trypsin Resistance [12]: 96%

Compound: U9-theraphotoxin-Cj1a [Peptide 11]
- Trypsin Resistance [12]: 46%

Compound: Venom defensin-like peptide A [Peptide 2]
- Trypsin Resistance [12]: 84%
